Patent US20100119599A1 (ARCHER PHARMACEUTICALS, INC., priority 2006, published 2010)
Where two headings read alike, the source gives them in different places.

Experiments:
Aβ1-42 = test: Measurement of Aβ1-42 in culture medium of 7W WT APP751 CHO cells by ELISA; assay type: cell-based, Chinese hamster; details: for Aβ1-42 (% of control): CHO cells that overexpress APP751, zero = below the detection limit of the assay; for activity at 5 µM: Cricetulus griseus, 5 μM test compound, CHO cells stably transfected with human APP751, culture medium, ELISA, control DMSO;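 for Aβ1-42 (% of control): 5 µM test compound but RI-coded compounds at 10 µM for 24 hours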
Aβ1-40 = test: Measurement of Aβ1-40 in culture medium of 7W WT APP751 CHO cells by ELISA; assay type: cell-based, Chinese hamster; details: for Aβ1-40 (% of control): CHO cells that overexpress APP751, zero = below the detection limit of the assay; for activity at 5 µM: Cricetulus griseus, 5 μM test compound, CHO cells stably transfected with human APP751, culture medium, ELISA, control DMSO;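 for all read-outs here: 5 µM test compound but RI-coded compounds at 10 µM for 24 hours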
[1] = Table 1, 0 = no detectable amount, read-out: Aβ1-42 (% of control)
[2] = Table 1, 0 = no detectable amount

| Compound | Aβ1-42 (% of control) (Aβ1-42) | Aβ1-40 (% of control) (Aβ1-40) | activity at 5 µM (Aβ1-42; [1]) [%] | activity at 5 µM (Aβ1-40; [2]) [%] | other results |
| --- | --- | --- | --- | --- | --- |
| COc1cc(/C=c2\sc3n(c2=O)C(N)=C(C#N)C(c2ccc(O)c(OC)c2)C=3C#N)ccc1O (stereo not shown) [ST025032, 5-amino-7-(4-hydroxy-3-methoxyphenyl)-2-[(4-hydroxy-3-methoxyphenyl)methylene]-3-oxo-4,7-dihydro-1,3-thiazolidino[3,2-a]pyridine-6,8-dicarbonitrile] | 32.98 % of control | 27.77 % of control |  |  |  |
| CCOc1cc(/C=c2\sc3n(c2=O)C(N)=C(C#N)C(c2ccc(O)c(OCC)c2)C=3C#N)ccc1O (stereo not shown) [ST025033, 5-amino-7-(3-ethoxy-4-hydroxyphenyl)-2-[(3-ethoxy-4-hydroxyphenyl)methylene]-3-oxo-4,7-dihydro-1,3-thiazolidino[3,2-a]pyridine-6,8-dicarbonitrile] | 57.6 % of control | 53.66 % of control |  |  |  |
| N#CC1=C(N)n2c(s/c(=C\c3ccc(O)cc3)c2=O)=C(C#N)C1c1ccc(O)cc1 (stereo not shown) [ST025034, 5-amino-7-(4-hydroxyphenyl)-2-[(4-hydroxyphenyl)methylene]-3-oxo-4,7-dihydro-1,3-thiazolidino[3,2-a]pyridine-6,8-dicarbonitrile] | 85.11 % of control | 69.9 % of control |  |  |  |
| CCOc1cc(/C=c2\sc3n(c2=O)C(N)=C(C#N)C(c2ccc(OCC(N)=O)c(OCC)c2)C=3C#N)ccc1OCC(N)=O (stereo not shown) [ST025037, 2-[4-(5-amino-2-{[4-(carbamoylmethoxy)-3-ethoxyphenyl]methylene}-6,8-dicyano-3-oxo(4,7-dihydro-1,3-thiazolidino[3,2-a]pyridin-7-yl))-2-ethoxyphenoxy]acetamide] | 67.1 % of control | 80.02 % of control |  |  |  |
| CCOC(=O)C1=c2s/c(=C/c3ccccc3C(F)(F)F)c(=O)n2C(N)=C(C#N)C1c1ccccc1C(F)(F)F (stereo not shown) [ST025089, ethyl 5-amino-6-cyano-3-oxo-7-[2-(trifluoromethyl)phenyl]-2-{[2-(trifluoromethyl)phenyl]methylene}-4,7-dihydro-1,3-thiazolidino[3,2-a]pyridine-8-carboxylate] | 33.69 % of control | 48.71 % of control |  |  |  |
| COc1ccc(C2C(C#N)=C(N)NC(C(C#N)C#N)=C2C#N)cc1OC (stereo not shown) [ST025482, 6-amino-2-(dicyanomethyl)-4-(3,4-dimethoxyphenyl)-1,4-dihydropyridine-3,5-dicarbonitrile] | 45.1 % of control | 62.83 % of control |  |  |  |
| CCOC(=O)C1=C(C)N(c2nonc2NC(C)=O)C(N)=C(C#N)C1c1ccc(Cl)cc1Cl (stereo not shown) [ST026470, ethyl 1-[4-(acetylamino)(1,2,5-oxadiazol-3-yl)]-6-amino-4-(2,4-dichlorophenyl)-5-cyano-2-methyl-1,4-dihydropyridine-3-carboxylate] | 67.48 % of control | 81.7 % of control |  |  |  |
| O=C(N=C1CC(c2ccccc2)N(c2ccncc2)CC1[N+](=O)[O-])Nc1cccnc1 (stereo not shown) [ST026819, 2-(5-nitro-2-phenyl-1-(4-pyridyl)(4-6-hydropyridylidene))-N-(3-pyridyl)-2-azaace tamide] |  |  |  |  | activity at 5 µM (Aβ1-42; Table 3, read-out: Aβ-42 (% of control)): 57.8%; activity at 5 µM (Aβ1-40; Table 3): 64.9% |
| COC(=O)C1=C(C)NC2=C(C(=O)CCC2)C1c1ccc(Br)cc1 (stereo not shown) [ST028547, methyl 4-(4-bromophenyl)-2-methyl-5-oxo-1,4,6,7,8-pentahydroquinoline-3-carboxylate] |  |  | 45.3 | 72.1 |  |
| CCOC(=O)C1=C(C)NC2=C(C(=O)CCC2)C1c1ccc(OCc2ccccc2Cl)c(OC)c1 (stereo not shown) [ST028591, ethyl 4-{4-[(2-chlorophenyl)methoxy]-3-methoxyphenyl}-2-methyl-5-oxo-1,4,6,7,8-pentahydroquinoline-3-carboxylate] |  |  | 69.6 | 98.3 |  |
| COC(=O)C1=C(C)NC2=C(C(=O)CC(C)(C)C2)C1c1ccc(OCc2cccc(Cl)c2)c(OC)c1 (stereo not shown) [ST028592, methyl 4-{4-[(3-chlorophenyl)methoxy]-3-methoxyphenyl}-2,7,7-trimethyl-5-oxo-1,4,6,7,8-pentahydroquinoline-3-carboxylate] |  |  | 97.1 | 28.3 |  |
| COC(=O)C1=C(C)NC2=C(C(=O)CC(C)(C)C2)C1c1ccc(OCc2ccc(Cl)cc2)c(OC)c1 (stereo not shown) [ST028595, methyl 4-{4-[(4-chlorophenyl)methoxy]-3-methoxyphenyl}-2,7,7-trimethyl-5-oxo-1,4,6,7,8-pentahydroquinoline-3-carboxylate] |  |  | 98.9 | 34.4 |  |
| CCOC(=O)C1=C(C)NC2=C(C(=O)CCC2)C1c1ccc(OCc2ccc(Cl)cc2)c(OC)c1 (stereo not shown) [ST028598, ethyl 4-{4-[(4-chlorophenyl)methoxy]-3-methoxyphenyl}-2-methyl-5-oxo-1,4,6,7,8-pentahydroquinoline-3-carboxylate] |  |  | 71.6 | 27.4 |  |
| CCOC(=O)C1=C(C)NC2=C(C(=O)CCC2)C1c1ccc(OCc2ccc(C)cc2)c(OC)c1 (stereo not shown) [ST028606, ethyl 4-{3-methoxy-4-[(4-methylphenyl)methoxy]phenyl}-2-methyl-5-oxo-1,4,6,7,8-pentahydroquinoline-3-carboxylate] |  |  | 52 | 24.2 |  |
| COC(=O)C1=C(C)NC2=C(C(=O)CC(C)(C)C2)C1c1ccc(OCc2cccc(C(F)(F)F)c2)c(OC)c1 (stereo not shown) [ST028607, methyl 4-(3-methoxy-4-{[3-(trifluoromethyl)phenyl]methoxy}phenyl)-2,7,7-trimethyl-5-oxo-1,4,6,7,8-pentahydroquinoline-3-carboxylate] |  |  | 63.3 | 23.8 |  |
| COC(=O)C1=CN(Cc2ccc(F)cc2)C=C(C(=O)OC)C1c1ccc(OC)cc1OC [ST038081, methyl 4-(2,4-dimethoxyphenyl)-1-[(4-fluorophenyl)methyl]-5-(methoxycarbonyl)-1,4-dihydropyridine-3-carboxylate] | 92.93 % of control | 36.22 % of control |  |  |  |
| COC(=O)C1=CN(Cc2ccc3c(c2)OCO3)C=C(C(=O)OC)C1c1cccs1 [ST038112, methyl 1-(2H-benzo[3,4-d]1,3-dioxolen-5-ylmethyl)-5-(methoxycarbonyl)-4-(2-thienyl)-1,4-dihydropyridine-3-carboxylate] | 99.52 % of control | 47.7 % of control |  |  |  |
| COC(=O)C1=CN(Cc2ccc3c(c2)OCO3)C=C(C(=O)OC)C1c1ccc(OC)c(OC)c1 [ST038114, methyl 1-(2H-benzo[3,4-d]1,3-dioxolen-5-ylmethyl)-4-(3,4-dimethoxyphenyl)-5-(methoxycarbonyl)-1,4-dihydropyridine-3-carboxylate] | 95.92 % of control | 48 % of control |  |  |  |
| COC(=O)C1=CN(Cc2ccc(OC)c(OC)c2)C=C(C(=O)OC)C1c1cccs1 [ST038115, methyl 1-[(3,4-dimethoxyphenyl)methyl]-5-(methoxycarbonyl)-4-(2-thienyl)-1,4-d ihydropyridine-3-carboxylate] | 91 % of control | 42.45 % of control |  |  |  |
| COC(=O)C1=CN(Cc2ccc(OC)c(OC)c2)C=C(C(=O)OC)C1c1ccc(OC)c(OC)c1 [ST038162, methyl 4-(3,4-dimethoxyphenyl)-1-[(3,4-dimethoxyphenyl)methyl]-5-(methoxycarbonyl)-1,4-dihydropyridine-3-carboxylate] | 58.62 % of control | 49.65 % of control |  |  |  |
